Where two headings read alike, the source gives them in different places.
Legend:
[1] = tested on: human immunodeficiency virus (HIV); details: cited from earlier work
[2] = tested on: degradation of 5-fluorouracil; details: in vitro; cited from earlier work
[3] = tested on: clinical HIV-1 isolate JEW; test: anti-HIV activity (p24 production) in PHA-stimulated PBMC, clinical isolate JEW; assay type: cell-based; details: for EC50: Human immunodeficiency virus 1, PBMC, mean of three experiments; for Fold Enhancement (ddI anti-HIV activity): Table 2; for Fold Enhancement (d4T anti-HIV activity): Table 1
Text: .cndot."a" refers to the EC50 data as representing the mean values from three experiments, with duplicate determinations in each experiment.
Virus--A clinical HIV-1 isolate, JEW, was titrated with a infectivity assay [Johnson, V. A. and R. E. Byington. 1990. Infectivity assay, p. 71-76. in A. Aldovini and B. D. Walker (ed.), Techniques in HIV Research. Stockton Press, New York], and used in our experiments.
Chemicals--d4T was supplied by Bristol-Myers Squibb Company. 5-Fluorouracil(5-FU) was purchased from Sigma.
1. PBMC were infected by the clinical isolate JEW at a multiplicity of infection (MOI) of 0.001 at 37° C. for one hour, and then resuspended in RPMI 1640 medium (Gibco, Gaithersburg, Md.) containing 20% fetal bovine serum (FBS, Sigma), 1 ng/ml IL-2 and 2 mM L-glutamine (Gibco) at a concentration of 4×10^6 cells/ml.
2. d4T (2 μM) or ddI (40 μM) was serially diluted 1:3 into RPMI 1640 medium with a final volume of 100 μl/well in 96-well plates, and 50 μl of 2.0 μM, 0.8 μM and 0 μM 5-FU were then added to each well.
3. 50 μl of 4×10^6 / ml infected PBMC were added to each well in these plates to get a final 1×10^6 cells/ml, and incubated at 37° C.
4. Half media (100 μl) from each well were removed and replaced with fresh medium containing same concentrations of drug at day 3 or 4.
5. Samples were collected at day 7 and the p24 levels were quantitated using a HIV p24 ELISA kit (Dupont, Boston, Mass.).

[4] = tested on: HIV; details: lowering of endogenous dATP; cited from earlier work
[5] = tested on: clinical HIV isolate OLR; test: anti-HIV activity in PBMC, clinical isolate OLR; assay type: cell-based; details: with 0.1 μM 5-FU
Protocol: The 50% cytotoxicity concentration of 5-FU in PHA--PBMC is approximately 9 μM (i.e. micromolar) as determined by trypan blue staining.

[6] = tested on: HIV; details: cited from earlier work
[7] = cited from earlier work
[8] = clinical studies; cited from earlier work
[9] = tested on: HIV; details: 20 patients treated for up to 24 months; cited from earlier work
[10] = tested on: HIV-1 reverse transcriptase; details: in vitro; cited from earlier work
[11] = tested on: thymidylate synthetase (TS); details: cited from earlier work
[12] = in vitro; details: human, pha-stimulated pbmc
Protocol: (§1) Cells--Peripheral blood mononuclear cells (PBMC) from normal individuals were prepared by Ficoll-Hypaque gradient centrifugation of venous blood with citrate as an anticoagulant and stimulated with phytoagglutinin (PHA--P, 4 μg/ml, Sigma Chemical, St. Louis, Mo.) and interleukin-2 (IL-2, 1 ng/ml, Upstate Biotechnology Inc., Lake Placid, N.Y.) for three days.
(§2) To determine the cytotoxicity of 5-FU, uninfected PBMC were incubated with a series of concentrations of 5-FU (i.e., 0.04, 0.16, 0.63, 2.5 and 10 μM). To determine whether 5-FU can affect the cytotoxicity of d4T, uninfected PBMC were incubated with a series of concentrations of d4T (i.e., 0.8, 3.1, 12.5, 50 and 200 μM) containing 0.02 μM of 5-FU. This was repeated with d4T using 5-FU concentrations of 0.1 μM and 0.5 μM, respectively. Cell viability was monitored by trypan blue exclusion assay. Results were expressed as a percentage of living cells in drug testing wells compared to those in untreated control wells. The 50% cytotoxic concentration (CC50) was calculated as the concentration of drugs that decreased the percentage of living cells in drug-treated wells to 50% of those in untreated wells.

[13] = tested on: PHA-PBMC; test: cytotoxicity in PBMC by trypan blue exclusion
Protocol: as §1, §2

[14] = in vivo; cited from earlier work

## Nc1ncnc2c1ncn2[C@H]1CC[C@@H](CO)O1 [ddA, 2',3'-dideoxyadenosine]
[1]
  antiviral activity against HIV: demonstrated antiviral activity

## O=c1cc[nH]c(=O)[nH]1 [uracil]
[2]
  inhibition of degradation of 5-fluorouracil: strongly inhibits the degradation of 5-fluorouracil

## Nc1ccn([C@H]2CC[C@@H](CO)O2)c(=O)n1 [ddC, 2',3'-dideoxycytidine]
[1]
  antiviral activity against HIV: demonstrated antiviral activity

## OC[C@@H]1CC[C@H](n2cnc3c(O)ncnc32)O1 [ddI, 2',3'-dideoxyinosine]
[1]
  antiviral activity against HIV: demonstrated antiviral activity
[3]; PHA-stimulated PBMC, isolate JEW, 5-FU 0 μM, read-out: EC50 of ddI
  EC50: 0.1 ± 0.032 µM
[3]; PHA-stimulated PBMC, isolate JEW, with 5-FU 0.2 μM, read-out: EC50 of ddI
  EC50: 0.17 ± 0.002 µM
[3]; with 5-FU 0.2 μM
  Fold Enhancement (ddI anti-HIV activity): 0.6 X
[3]; with 5-FU 0.5 μM
  Fold Enhancement (ddI anti-HIV activity): 0.7 X

## NC(=O)NO [hydroxyurea]
[4]
  effect of hydroxyurea on anti-HIV activity of ddI: enhanced anti-HIV activity of ddI

## Cc1cn([C@H]2C=C[C@@H](CO)O2)c(=O)[nH]c1=O [d4T, 2',3'-didehydro-3'-deoxythymidine]
[5]
  fold enhancement of d4T activity: 4.5 fold
[6]; duration of anti-viral responses in patients
  time until CD4 counts and serum p24 levels return to baseline: approximately 6 months
[6]; treated patients
  CD4 counts: increases in CD4 counts
  serum p24 levels and infectious HIV titers in PBMC: decreases in both serum p24 levels and infectious HIV titers
[1]
  antiviral activity against HIV: demonstrated antiviral activity
[7]; clinical studies
  dose-limiting toxicity: peripheral neuropathy
[7]; human, in vivo
  undesirable side effects: peripheral neuropathy
[8]
  oral bioavailability: greater than 80%
[3]; read-out: EC50 of d4T, PHA-stimulated PBMC, isolate JEW, 5-FU 0 μM
  EC50: 0.098 ± 0.042 µM
[3]; read-out: EC50 of d4T, PHA-stimulated PBMC, isolate JEW, with 5-FU 0.2 μM
  EC50: 0.092 ± 0.039 µM
[3]; read-out: EC50 of d4T, PHA-stimulated PBMC, isolate JEW, with 5-FU 0.5 μM
  EC50: 0.027 ± 0.015 µM
[3]; with 0.5 μM 5-FU, isolate JEW
  fold enhancement of the anti-HIV activity of d4T: ≤ 4 fold
[3]; with 5-FU 0.2 μM
  Fold Enhancement (d4T anti-HIV activity): 1 X
[3]; with 5-FU 0.5 μM
  Fold Enhancement (d4T anti-HIV activity): 4 X
[9]
  resistant viruses isolated: no resistant viruses can be isolated
[10]
  inhibition of HIV-1 reverse transcriptase: potent inhibitor

## O=c1[nH]cc(F)c(=O)[nH]1 [5-FU, 5-fluorouracil]
[11]
  TS inhibition: effective TS inhibitor
[12]
  CC50: ~9 µM
[13]; up to 0.5 μM
  toxicity to PBMC: non-toxic
[13]; up to 0.5 μM 5-FU, PBMC
  potentiating effect on d4T cytotoxicity: no potentiating effect
[3]; up to 0.5 μM 5-FU, PBMC
  potentiating effect on the anti-HIV activity of ddI: no potentiating effect
[3]; up to 0.5 μM, PHA-PBMC acutely infected by isolate JEW
  antiviral activity alone: no antiviral activity
[14]
  half-life: very short half-life

## Nc1ccn([C@H]2C=C[C@@H](CO)O2)c(=O)n1 [d4C, 2',3'-dideoxycytidin-2'-ene]
[1]
  antiviral activity against HIV: demonstrated antiviral activity
